According to PubChem BioAssay AID2060912 (Molecular Pharmacology Branch, DTP, NCI, 2025):

Test system: HUVEC/MSC spheroids viability
Assay: Human HUVEC/MSC cell line growth inhibition [KRAS2];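 as to viability, T/C: percent of DMSO vehicle control luminescence so 100% = untreated viability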
Details: for IC50: curve of first compound; for viability, T/C: stronger effect = lower value; active = viability on the fitted dose curve at most 10% of control; inactive = the rest
How it was run: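 Spheroids of pooled-donor HUVEC and hMSC (passage ≤5) without tumour cells were treated with KRAS-pathway inhibitors alone and combined with targeted agents. Top concentration was at or near clinical Cmax, or 10 microM when Cmax was unknown, descending in half-log steps.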

Cn1nccc1Nc1nccc(-c2cc3c(s2)C(C)(C)N(CCN2CCOCC2)C3=O)n1 + C=CC(=O)N1CCN(c2nc(OCC3CCCN3C)nc3c2CCN(c2cccc4cccc(C)c24)C3)CC1CC#N
2890 nM: IC50 (second compound 0.0949 µM)
2880 nM: IC50 (second compound 0.00949 µM)
1130 nM: IC50 (second compound 3 µM)
active: viability, T/C (second compound 0.00949 µM, first compound 10 µM) 6.48% | viability, T/C (second compound 0.03 µM, first compound 10 µM) 5.51% | viability, T/C (second compound 0.0949 µM, first compound 10 µM) 9.65% | viability, T/C (second compound 0.3 µM, first compound 10 µM) 3.83% | viability, T/C (second compound 0.949 µM, first compound 10 µM) 1.39% | viability, T/C (second compound 3 µM, first compound 3.16 µM) 2.04% | viability, T/C (second compound 3 µM, first compound 10 µM) 0.32%
2420 nM: IC50 (second compound 0.949 µM)
inactive: viability, T/C (second compound 0.00949 µM, first compound 0.0316 µM) 81.1% | viability, T/C (second compound 0.00949 µM, first compound 0.1 µM) 103% | viability, T/C (second compound 0.00949 µM, first compound 0.316 µM) 124% | viability, T/C (second compound 0.00949 µM, first compound 1 µM) 109% | viability, T/C (second compound 0.00949 µM, first compound 3.16 µM) 45.1% | viability, T/C (second compound 0.03 µM, first compound 0.0316 µM) 85.3% | viability, T/C (second compound 0.03 µM, first compound 0.1 µM) 103% | viability, T/C (second compound 0.03 µM, first compound 0.316 µM) 111% | viability, T/C (second compound 0.03 µM, first compound 1 µM) 96.2% | viability, T/C (second compound 0.03 µM, first compound 3.16 µM) 48.6% | viability, T/C (second compound 0.0949 µM, first compound 0.0316 µM) 93.1% | viability, T/C (second compound 0.0949 µM, first compound 0.1 µM) 119% | viability, T/C (second compound 0.0949 µM, first compound 0.316 µM) 106% | viability, T/C (second compound 0.0949 µM, first compound 1 µM) 86.1% | viability, T/C (second compound 0.0949 µM, first compound 3.16 µM) 47.6% | viability, T/C (second compound 0.3 µM, first compound 0.0316 µM) 77.7% | viability, T/C (second compound 0.3 µM, first compound 0.1 µM) 85.8% | viability, T/C (second compound 0.3 µM, first compound 0.316 µM) 99.6% | viability, T/C (second compound 0.3 µM, first compound 1 µM) 91% | viability, T/C (second compound 0.3 µM, first compound 3.16 µM) 48.5% | viability, T/C (second compound 0.949 µM, first compound 0.0316 µM) 76.7% | viability, T/C (second compound 0.949 µM, first compound 0.1 µM) 91.2% | viability, T/C (second compound 0.949 µM, first compound 0.316 µM) 93.9% | viability, T/C (second compound 0.949 µM, first compound 1 µM) 92.1% | viability, T/C (second compound 0.949 µM, first compound 3.16 µM) 38.4% | viability, T/C (second compound 3 µM, first compound 0.0316 µM) 90.6% | viability, T/C (second compound 3 µM, first compound 0.1 µM) 107% | viability, T/C (second compound 3 µM, first compound 0.316 µM) 93.8% | viability, T/C (second compound 3 µM, first compound 1 µM) 55.7%
3050 nM: IC50 (second compound 0.03 µM)
3020 nM: IC50 (second compound 0.3 µM)
